The source of these data is ChEMBL document CHEMBL1144078, “Activity-guided isolation of triterpenoid acyl CoA cholesteryl acyl transferase (ACAT) inhibitors from Ilex kudincha” (J Nat Prod, 1999).

This test addresses T1, Sterol O-acyltransferase 1 (Rattus norvegicus, UniProt O70536).
T1 sequence (O70536 whole entry): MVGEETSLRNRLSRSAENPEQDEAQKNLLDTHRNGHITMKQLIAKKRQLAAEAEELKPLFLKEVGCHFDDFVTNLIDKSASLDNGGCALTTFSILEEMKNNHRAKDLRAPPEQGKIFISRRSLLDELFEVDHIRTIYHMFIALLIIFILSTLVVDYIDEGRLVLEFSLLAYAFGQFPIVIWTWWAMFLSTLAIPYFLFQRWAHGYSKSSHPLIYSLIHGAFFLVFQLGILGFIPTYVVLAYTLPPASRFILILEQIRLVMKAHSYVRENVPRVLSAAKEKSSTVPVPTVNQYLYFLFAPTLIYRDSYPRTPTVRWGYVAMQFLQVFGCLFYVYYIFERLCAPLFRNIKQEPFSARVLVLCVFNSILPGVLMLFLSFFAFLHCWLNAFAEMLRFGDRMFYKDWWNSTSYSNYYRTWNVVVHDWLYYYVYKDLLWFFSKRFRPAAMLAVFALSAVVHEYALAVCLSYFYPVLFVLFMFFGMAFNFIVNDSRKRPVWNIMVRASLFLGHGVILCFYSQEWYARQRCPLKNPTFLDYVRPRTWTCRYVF
As to the kind of experiment: Inhibition of rat liver microsomal ACAT.
Regarding `C[C@H]1[C@H](C)CC[C@]2(C(=O)O)CC[C@]3(COC(=O)/C=C/c4ccc(O)cc4)C(=CC[C@@H]4[C@@]5(C)CC[C@H](O)C(C)(C)[C@@H]5CC[C@]43C)[C@H]12`, inhibition was half-maximal at 73 µM (IC50). For `C[C@H]1[C@H](C)CC[C@]2(C(=O)O)CC[C@]3(COC(=O)/C=C\c4ccc(O)cc4)C(=CC[C@@H]4[C@@]5(C)CC[C@H](O)[C@@](C)(CO)[C@@H]5CC[C@]43C)[C@H]12`, the IC50 (in general, the concentration at which inhibition is half-maximal) stood at 194 µM. Next, `C[C@H]1[C@H](C)CC[C@]2(C(=O)O)CC[C@]3(C)C(=CC[C@@H]4[C@@]5(C)CC[C@H](O)[C@@](C)(CO)[C@@H]5CC[C@]43C)[C@H]12`: 64 µM; `C=C1[C@@H](O)[C@H](O)C[C@]2(C)[C@H]3C=C[C@]45OC(=O)[C@@]6(CC[C@@H](C)[C@H](C)[C@H]64)CC[C@@]5(C)[C@]3(C)CC[C@@H]12` [ILEKUDINOL A]: 154 µM; `C=C1[C@@H](O)[C@H](O)C[C@]2(C)[C@H]3CC=C4[C@@H]5[C@@H](C)[C@H](C)CC[C@]5(C(=O)O)CC[C@@]4(C)[C@]3(C)CC[C@@H]12` [ILEKUDINOL B]: 44 µM. Regarding `C=C(C)[C@@H]1CC[C@]2(CO)CC[C@]3(C)[C@H](CC[C@@H]4[C@@]5(C)CC[C@H](O)[C@](C)(CO)[C@@H]5CC[C@]43C)[C@@H]12` [ILEKUDINOL C], half-maximal inhibition (IC50) required 328 µM. Under `C=C1[C@@H](O)[C@H](O)C[C@]2(C)[C@H]3[C@@H]4O[C@@H]4[C@]45OC(=O)[C@@]6(CC[C@@H](C)[C@H](C)[C@H]64)CC[C@@]5(C)[C@]3(C)CC[C@@H]12` [ULMOIDOL] stands 468 µM.
